From patent publication US7091351B2, “Vanadium compounds for treating cancer” (Parker Hughes Institute, priority 1998, dated 2006)
Several values for one entry are separate records, joined by “and”; a condition that tells them apart may be missing. Equal entries are not always repeated.

How the values were obtained:
Assay type in all cases: cell-based, human
[1] = test system: Ntera-2 testicular cancer cells; assay: MTT cytotoxicity assay of vanadocenes, NTERA-2 cells; details: 24 h, 1.9-250 μM
Summary of the method: (§1)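 Cells seeded in triplicate, after 24 h exposed to two-fold serial dilutions of vanadocenes (1.9–250 μM; DMSO vehicle, 0.25% DMSO control) for 24 h. MTT added for 4 h at 37 °C, formazan dissolved in SDS/HCl overnight, OD read at 540 nm; IC50 values reported.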

[2] = test system: Tera-2 testicular cancer cells; assay: MTT cytotoxicity assay of vanadocenes, TERA-2 cells; details: 24 h, 1.9-250 μM
Summary of the method: as §1

[3] = test system: U266BL multiple myeloma cells; assay: MTT cytotoxicity assay of oxovanadium(IV) compounds, U266BL; details: 48 hr
Experimental: The cytotoxicity of oxovanadium (W) complexes listed in Table 6 were tested against 9 different human cancer cell lines was performed using the MTT (3-[4,5-dimethylthiazol-2-yl]-2,5-diphenyl tetrazolium bromide) assay (Boehringer Mannheim Corp., Indianapolis, Ind.) as described previously (20). Briefly, exponentially growing tumor cells were seeded into a 96-well plate at a density of 4×10^4cells/well and incubated with medium containing the oxovanadium(IV) compounds concentrations ranging from 0.1 to 250 μM for 48 hours at 37° C. in a humidified 5% CO2 atmosphere. Triplicate wells were used for each treatment. To each well, 10 μl of MTT (0.5 mg/ml final concentration) was added and the plates were incubated at 37° C. for 4 hours to allow MTT to form formazan crystals by reacting with metabolically active cells . The formazan crystals were solubilized overnight at 37° C. in a solution containing 10% SDS in 0.01 M HCl. The absorbence of each well was measured in a microplate reader (Labsystems) at 540 nm and a reference wavelength of 690 nm. To translate the OD540 values into the number of live cells in each well, the OD540 values were compared to those on standard OD540—versus—cell number curves generated for each cell line. The percent survival was calculated using the formula: % survival=Live cell number[test]/Live cell number [control]×100. The IC50 values were calculated by non-linear regression analysis using an Graphpad Prism software version 2.0 (Graphpad Software, Inc., San Diego, Calif.).

Compound	IC50 [1]	IC50 [2]	IC50 [3]
[Cl-].[Cl-].[V+4].c1cc[cH-]c1.c1cc[cH-]c1 [VDC, VCp2Cl2]	74 µM	80.6 µM and 81 µM	–
bis(4,7-dimethyl-1,10-phenanthroline)sulfatooxovanadium(IV) [Compound 29]	–	–	0.5 ± 0.02 µM
